Patent US20080188560A1, “Cosmetic Compositions and Methods For Sensory Cooling” (priority 2004, published 2008)

Experiment: Cooling effect/cooling potential: heat of fusion by Differential Scanning Calorimeter
Format: physicochemical
Details: Pyris 1 DSC, sample cooled to −10° C., heated 10° C. per minute up to 50° C., area under the peak
Description: Four samples of the composition are prepared with 10%, 20% and 40% of the stearyl heptanoate in three samples and 40% Marrix (C12-C15 Alkyl Furmurate) in a fourth sample. Each sample is first weighed and subsequently cooled to −10° C. A Calorimeter (Pyris 1 Differential Scanning Calorimeter from Perkin Elmer) is used to apply heat to each sample at one minute increments, 10° C. per minute up to 50° C. The Calorimeter measures the heat of the sample at each increment. The resulting readings of heat are plotted against time for each sample. The Calorimeter measures the area under the peak on the plot to calculate the Heat of fusion (J/g) for each sample. The heat of fusion for the sample is the energy required to melt the sample from a solid form to a liquid form. The heat of fusion for the sample identifies the amount of energy the sample can absorb. Therefore, to correlate to the cooling on the skin, the higher the heat of fusion of a sample/material, the more heat the sample/material will absorb from the skin upon application to correspondingly create a cooling sensation on the skin.

(ΔH) Heat of fusion: 174.3 J/g | (ΔH) Heat of fusion (listed as active alone): 174.3 J/g | (ΔH) Heat of fusion (listed as stearyl heptanoate): 74.5 J/g
Structure (SMILES): CCCCCCCCCCCCCCCCCCOC(=O)CCCCCC [Active alone, Stearyl Heptanoate]
